From patent US5776939A, “Drug resistance and multidrug resistance modulators” (Eli Lilly and Company, priority 1997, dated 1998)

Columns and labels:
[1] = system: drug-resistant malaria; conditions: in vitro; cited from earlier work
[2] = molecular target: p-glycoprotein (Homo sapiens, UniProt P08183); conditions: for EC50: cem/vlb100 cells, 72 h; for Rev100 (lowest concentration of modifier which can achieve 100% reversal activity): human, 4320 min
Experimental: When in vitro testing for multidrug resistance modulation with cancer chemotherapeutic drugs is conducted compounds are evaluated for their ability to show multidrug resistance modulation when coadministered with an oncolytic.
The cells can be maintained in SMEM medium supplemented with 10% FBS and 2 mM L-glutamine in a humidified incubator with 95% air and 5% C02. Cell number can be determined using a Coulter Counter model ZM. Cells can be subcultured every 3-4 days.
Cell viability can be determined using a modified MTT dye reduction method (Denziot, F., Lang, R., "Rapid colorimetric assay for cell growth and survival modifications to the tetrazolium procedure giving improved sensitivity and reliability", J. Immunological Methods, 89, 271-277, (1986)). A brief description of this method is as follows: cells are harvested during the logarithmic growth phase, and seeded in 96-well serocluster plates at 7.5×10^3 cells/well and cultured for 72 hours in the presence of serially diluted oncolytics (VLB, DOX, VP-16 and Taxol®)±modulators. A single well assay is conducted using a fixed concentration of VLB (4 ng/ml) and modulator (5μM). The cytotoxicity of the modulator alone, at the same concentration is also determined. Modulators are prepared as 2 mM stocks in DMSO and added to the wells to give final concentrations ranging from 5 pM to 0.5 WM. After 72 hours, 20 µl of freshly prepared MTT (5 mg/ml in Dulbecco's phosphate buffered saline pH 7.5) is added to each well and placed for 4 hours in a 37° C. incubator. Cells are pelleted at 1800 R.P.M. for 10 minutes in a Sorvall RT6000B centrifuge. After centrifugation, 70 μl of medium is carefully removed from each well, and 100 µl of 2- propanol/0.04 N HC1 is added to dissolve the blue formazan stained cells. Cells are resuspended 5-10 times with a multipipettor or until no particulate matter was visible. Plates are immediately read on a Yitertek MCC/340 microplate reader (Flow Laboratories (McLean, VA) with a wavelength of 570 nm and a reference wavelength of 630 nm). Controls are measured in quadruplicate and modulators in duplicate.
IC50 's are calculated from semilog dose response curves in the presence and absence of modulators for both the parent and resistant cell lines. The fold shift is calculated as the IC50 for cells treated with oncolytic alone divided by the IC50 for cells treated with oncolytic+modulator.

[3] = system: multidrug resistance; conditions: in vivo; cited from earlier work
[4] = in vivo; cited from earlier work

p-glycoprotein, sequence (P08183 whole entry): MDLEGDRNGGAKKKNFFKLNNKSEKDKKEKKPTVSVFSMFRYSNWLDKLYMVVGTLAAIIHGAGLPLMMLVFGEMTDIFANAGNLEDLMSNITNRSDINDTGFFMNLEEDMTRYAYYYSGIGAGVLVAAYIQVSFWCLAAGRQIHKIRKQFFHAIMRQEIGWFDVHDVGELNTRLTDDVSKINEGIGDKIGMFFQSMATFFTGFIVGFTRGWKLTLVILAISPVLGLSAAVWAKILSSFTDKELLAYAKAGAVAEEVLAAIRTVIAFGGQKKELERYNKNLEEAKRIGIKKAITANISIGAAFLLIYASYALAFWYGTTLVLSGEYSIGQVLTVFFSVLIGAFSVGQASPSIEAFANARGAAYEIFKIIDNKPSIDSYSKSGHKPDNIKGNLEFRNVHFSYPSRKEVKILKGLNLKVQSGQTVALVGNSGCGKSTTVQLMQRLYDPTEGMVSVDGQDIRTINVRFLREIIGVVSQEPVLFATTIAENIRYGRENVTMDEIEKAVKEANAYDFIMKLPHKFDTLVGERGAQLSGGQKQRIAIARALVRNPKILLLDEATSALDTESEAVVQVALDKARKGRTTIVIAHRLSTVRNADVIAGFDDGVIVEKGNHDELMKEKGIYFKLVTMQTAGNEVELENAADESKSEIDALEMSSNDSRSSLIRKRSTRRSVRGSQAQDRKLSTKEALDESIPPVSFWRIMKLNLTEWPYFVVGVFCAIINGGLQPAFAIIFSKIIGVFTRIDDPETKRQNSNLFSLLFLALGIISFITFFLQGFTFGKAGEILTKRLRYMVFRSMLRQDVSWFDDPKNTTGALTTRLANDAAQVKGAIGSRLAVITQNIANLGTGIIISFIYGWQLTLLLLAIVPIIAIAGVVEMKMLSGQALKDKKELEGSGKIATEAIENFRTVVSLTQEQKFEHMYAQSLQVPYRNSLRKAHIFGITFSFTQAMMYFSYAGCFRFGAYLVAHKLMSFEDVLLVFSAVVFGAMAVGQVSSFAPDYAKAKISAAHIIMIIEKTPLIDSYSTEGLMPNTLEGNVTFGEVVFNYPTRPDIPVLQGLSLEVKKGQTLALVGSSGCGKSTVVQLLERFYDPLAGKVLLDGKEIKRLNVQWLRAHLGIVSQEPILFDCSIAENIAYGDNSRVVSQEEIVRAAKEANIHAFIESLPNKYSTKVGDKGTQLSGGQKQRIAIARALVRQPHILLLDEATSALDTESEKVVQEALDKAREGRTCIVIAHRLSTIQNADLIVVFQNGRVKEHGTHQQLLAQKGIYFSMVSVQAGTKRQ

MDR Reversal Activity [2]	EC50 [2] [nM]	Rev100 (lowest concentration of modifier which can achieve 100% reversal activity) [2] [µM]	Structure (SMILES)	effect on drug-resistant malaria [1]	dose required to be effective as a multidrug resistance modulator [3]	oral bioavailability [4]
–	–	–	COc1ccc(CCN(C)CCCC(C#N)(c2ccc(OC)c(OC)c2)C(C)C)cc1OC (stereo not drawn) [verapamil]	effective	–	–
potent	1000	> 1.0	OC(CCc1cccc2ncccc12)CN1CCN([C@@H]2c3ccccc3[C@@H]3[C@H](c4ccccc42)C3(F)F)CC1 (stereo partly drawn) [Example 1e, anti-5-{1-(4-(10,11-difluorocyclopropyldibenzosuber-5-yl)piperazin-1-yl)-2(R,S)-hydroxybut-4-yl}quinoline·3HC1]	–	–	–
potent	250	0.50	O[C@@H](CSc1cccc2ncccc12)CN1CCN([C@@H]2c3ccccc3[C@@H]3[C@H](c4ccccc42)C3(F)F)CC1 [Example 2b, anti-5-{l-(4-(10,11-difluorocyclopropyldi-benzosuber-5-yl)piperazin-1-yl)-2(R)-hydroxyprop-3-ylthio}quinoline·3HC1]	–	–	–
–	–	–	O=C(C(c1ccccc1)c1ccccc1)N1CCN(CC(O)COc2cccc3ncccc23)CC1 (stereo not drawn) [MS-209]	–	higher doses	better
